Test systems include EKVX NSCLC; KM12 colon; MALME-3M melanoma; MDA-MB-231 breast; MDA-MB-435; OVCAR-5 ovarian; RPMI-8226 leukemia; SK-MEL-2 melanoma; SK-MEL-28 melanoma; UACC-62 melanoma.
Common to all, as to experiment: NCI anticancer screen, dose series, 48 h

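Assay format: 96-well plates, 48-hour exposure. The concentration for 50% growth inhibition is given as GI50. TGI: concentration producing complete growth inhibition.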

For `Cc1ccc([N+](=O)[O-])cc1NC1=NCCO1`, the TGI in the assay on EKVX NSCLC, in the assay on KM12 colon, in the assay on MALME-3M melanoma, in the assay with MDA-MB-231 breast, with MDA-MB-435 and with OVCAR-5 ovarian was over 100 µM throughout. In addition, the TGI in the assay with RPMI-8226 leukemia, in the assay on SK-MEL-2 melanoma, in the assay with SK-MEL-28 melanoma and in the assay on UACC-62 melanoma was over 100 µM each time.
Turning to `CCC(=O)[C@H](C)[C@@H](OC(=O)[C@H](C)CC)[C@H](C)[C@H]1OC(CC)=C(C)C(=O)[C@@H]1C`, the GI50 in the assay with EKVX NSCLC was 23.9 µM; in the assay with KM12 colon it was 19.5 µM; in the assay on MALME-3M melanoma it was 19.9 µM; in the assay on MDA-MB-231 breast, 13.3 µM; with MDA-MB-435, 21.5 µM; with OVCAR-5 ovarian, 15.4 µM. Further, the GI50 in the assay with RPMI-8226 leukemia is 10.1 µM; with SK-MEL-2 melanoma, 24.6 µM; in the assay on SK-MEL-28 melanoma, 21.2 µM; in the assay on UACC-62 melanoma, 13.7 µM. Moreover, the TGI with EKVX NSCLC stood at 73.9 µM; in the assay with KM12 colon it was 52.5 µM; in the assay on MALME-3M melanoma, 42.4 µM; with MDA-MB-231 breast, 30.9 µM; in the assay with MDA-MB-435 it was 56.1 µM; in the assay with OVCAR-5 ovarian, 48 µM. Moreover, the TGI was determined as 35.1 µM with RPMI-8226 leukemia, 50.2 µM in the assay with SK-MEL-2 melanoma, 57.4 µM in the assay on SK-MEL-28 melanoma and 27.7 µM in the assay with UACC-62 melanoma.
For `CN1CCN(C2=NCCO2)CC1`, the TGI in the assay with EKVX NSCLC, in the assay on KM12 colon, in the assay with MALME-3M melanoma, in the assay on MDA-MB-231 breast, in the assay on MDA-MB-435 and in the assay on OVCAR-5 ovarian was over 100 µM each time. Also, the TGI with RPMI-8226 leukemia, with SK-MEL-2 melanoma, in the assay with SK-MEL-28 melanoma and in the assay on UACC-62 melanoma was over 100 µM throughout.
As to `OC1CSSC1Cn1cnc2c(Nc3ccc(OCc4cccc(F)c4)c(Cl)c3)ncnc21` (stereo not given), the GI50 in the assay with EKVX NSCLC was 0.603 µM; in the assay with KM12 colon, 0.386 µM; in the assay with MALME-3M melanoma, 2.52 µM; with MDA-MB-231 breast, 0.986 µM; in the assay with MDA-MB-435 it was 0.35 µM; in the assay on OVCAR-5 ovarian, 3.83 µM. For the same compound, the GI50 was 1.06 µM in the assay on RPMI-8226 leukemia, 0.997 µM in the assay on SK-MEL-2 melanoma, 0.591 µM in the assay with SK-MEL-28 melanoma and 0.971 µM with UACC-62 melanoma. The TGI is 2.35 µM with EKVX NSCLC; 1.43 µM in the assay on KM12 colon; 10.6 µM in the assay with MALME-3M melanoma; 4.53 µM in the assay with MDA-MB-231 breast; 0.788 µM with MDA-MB-435; 10.2 µM with OVCAR-5 ovarian. Also, the TGI in the assay on RPMI-8226 leukemia came out at 3.74 µM; in the assay with SK-MEL-2 melanoma it was 3.26 µM; in the assay with SK-MEL-28 melanoma, 4.64 µM; with UACC-62 melanoma it was 2.71 µM.
`Cc1cc(-c2nc(C(=O)Nc3cc4oc(N5CCOCC5)nc4nc3N3CC[C@@H](O)C3)co2)ccn1`: the GI50 in the assay with EKVX NSCLC was over 100 µM; in the assay with KM12 colon, 3.46 µM; in the assay on MALME-3M melanoma, 29.1 µM; in the assay on MDA-MB-231 breast, 45.6 µM; with MDA-MB-435, 40.7 µM; with OVCAR-5 ovarian, over 100 µM. Also, the GI50 is 25.8 µM in the assay on RPMI-8226 leukemia, 23 µM with SK-MEL-2 melanoma, 56.2 µM in the assay with SK-MEL-28 melanoma and 57 µM in the assay with UACC-62 melanoma. The TGI in the assay with EKVX NSCLC, with KM12 colon, in the assay with MALME-3M melanoma, in the assay with MDA-MB-231 breast, with MDA-MB-435 and with OVCAR-5 ovarian was over 100 µM throughout. The TGI was over 100 µM in the assay with RPMI-8226 leukemia, 99.8 µM with SK-MEL-2 melanoma, over 100 µM with SK-MEL-28 melanoma and over 100 µM in the assay with UACC-62 melanoma.
Turning to `C=CCOc1ccc2c(C)cc(=O)oc2c1C`, the TGI in the assay on EKVX NSCLC, with KM12 colon, in the assay on MALME-3M melanoma, in the assay with MDA-MB-231 breast, with MDA-MB-435 and in the assay on OVCAR-5 ovarian was over 100 µM each time. For the same compound, the TGI in the assay with RPMI-8226 leukemia, in the assay with SK-MEL-2 melanoma, with SK-MEL-28 melanoma and in the assay with UACC-62 melanoma was over 100 µM throughout.
`NC(N)=NS(=O)(=O)c1ccc(Nc2c3ccccc3nc3c(C(=O)NCCO)cccc23)cc1`: the GI50 in the assay with EKVX NSCLC was 25.7 µM; with KM12 colon, 15.4 µM; in the assay on MALME-3M melanoma it was 16.7 µM; in the assay with MDA-MB-231 breast it was 24.6 µM; with MDA-MB-435 it was 23.3 µM; with OVCAR-5 ovarian, 22.4 µM. Moreover, the GI50 in the assay on RPMI-8226 leukemia was 15 µM; in the assay with SK-MEL-2 melanoma, 26.6 µM; in the assay with SK-MEL-28 melanoma, 20.3 µM; in the assay on UACC-62 melanoma it was 18.1 µM.
For `Cc1ccc(CN2CCC(C(=O)Nc3ccc(-c4cc5ccccc5[nH]4)cc3)CC2)o1`, the GI50 with EKVX NSCLC was over 100 µM; with KM12 colon it was 83.9 µM; with MALME-3M melanoma it was over 100 µM; with MDA-MB-231 breast, over 100 µM; with MDA-MB-435, over 100 µM; in the assay on OVCAR-5 ovarian, over 100 µM. Besides, the GI50 in the assay on RPMI-8226 leukemia was over 100 µM; in the assay on SK-MEL-2 melanoma, over 100 µM; in the assay with SK-MEL-28 melanoma, 88.9 µM; with UACC-62 melanoma it was 45.5 µM. The TGI in the assay on EKVX NSCLC, in the assay with KM12 colon, in the assay with MALME-3M melanoma, in the assay on MDA-MB-231 breast, in the assay with MDA-MB-435 and in the assay with OVCAR-5 ovarian was over 100 µM each time. The TGI in the assay on RPMI-8226 leukemia, in the assay on SK-MEL-2 melanoma, in the assay on SK-MEL-28 melanoma and in the assay with UACC-62 melanoma was over 100 µM throughout.
In the case of `O=C1/C(=C/c2ccc(O)c(O)c2)CCC/C1=C\c1ccc(O)c(O)c1`, the TGI came to 32.4 µM with EKVX NSCLC; 13.8 µM with KM12 colon; 7.05 µM in the assay on MALME-3M melanoma; 37.4 µM with MDA-MB-231 breast; 16.7 µM in the assay on MDA-MB-435; 31.2 µM in the assay with OVCAR-5 ovarian. The TGI in the assay on RPMI-8226 leukemia was over 44.7 µM; with SK-MEL-2 melanoma, 13.1 µM; in the assay with SK-MEL-28 melanoma it was 11.8 µM; in the assay with UACC-62 melanoma, 30.2 µM.

Values taken from PubChem BioAssay (NCI).
